The nature of data set [1]: DPPH free radical scavenging assay. The note with it: 100 µg/mL, mean (SEM). The protocol: The 2,2-diphenyl-1-picrylhydrazyl (DPPH) test was used to assess radical scavenging activity. By using ascorbic acid as a reference inhibitor, 100 µL of DPPH ([…]), 20 µL of escalating concentrations of test compounds, and the volume adjusted to 200 µL in each well with methanol were incubated for 30 min at room temperature. At 517 nm, an OPTI Max Tunable microplate reader was used to perform assay measurements. The % inhibition caused by the investigated inhibitors was calculated after response rates were compared.
(In general: Loss of DPPH colour is used to gauge radical scavenging.)

The target in data set [2] is T1, Jack bean urease (Canavalia ensiformis, UniProt P07374). Kind of data set: Kinetic analysis of urease inhibition (Lineweaver-Burk plot). The following applies: for Vmax: substrate urea. The class given is biochemical. The source says: The kinetic studies of the enzyme by the Lineweaver–Burk plot of 1/V versus 1/[S] in the presence of different compound concentrations produced a series of straight lines (Figure 3A). […] Thus, compounds 3f inhibit the urease non-competitively in order to form an enzyme inhibitor complex.
T1 sequence (P07374 whole entry, looked up): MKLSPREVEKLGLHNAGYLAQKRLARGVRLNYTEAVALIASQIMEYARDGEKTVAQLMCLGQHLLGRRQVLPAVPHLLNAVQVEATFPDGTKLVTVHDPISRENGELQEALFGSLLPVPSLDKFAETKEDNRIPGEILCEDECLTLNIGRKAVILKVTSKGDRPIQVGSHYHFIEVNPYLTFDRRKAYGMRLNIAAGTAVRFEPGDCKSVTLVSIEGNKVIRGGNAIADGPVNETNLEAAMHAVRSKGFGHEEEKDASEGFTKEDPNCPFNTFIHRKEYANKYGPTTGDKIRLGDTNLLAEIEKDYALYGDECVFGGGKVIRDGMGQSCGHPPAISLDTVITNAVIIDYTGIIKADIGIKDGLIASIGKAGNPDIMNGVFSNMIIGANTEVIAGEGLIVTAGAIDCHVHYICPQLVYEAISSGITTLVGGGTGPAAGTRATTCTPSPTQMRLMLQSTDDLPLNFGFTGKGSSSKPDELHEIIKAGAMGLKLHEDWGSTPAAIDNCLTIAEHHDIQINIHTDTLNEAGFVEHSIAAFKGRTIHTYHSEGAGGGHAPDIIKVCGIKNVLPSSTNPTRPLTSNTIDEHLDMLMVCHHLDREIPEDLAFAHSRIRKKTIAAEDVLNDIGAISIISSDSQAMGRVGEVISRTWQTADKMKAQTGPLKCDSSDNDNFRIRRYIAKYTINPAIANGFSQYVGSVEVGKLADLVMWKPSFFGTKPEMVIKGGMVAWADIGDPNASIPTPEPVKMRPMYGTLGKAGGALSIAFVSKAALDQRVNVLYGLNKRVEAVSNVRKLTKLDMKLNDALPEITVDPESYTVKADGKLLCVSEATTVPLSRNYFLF
Based on IC50 values, compound 3j was identified as the most powerful. Changing the concentration of urea at different concentrations of 3j (0.00, 0.0042, 0.0085, and 0.017 M) was used to study kinetics. For urease kinetics, the urea concentration was quickly adjusted from 100, 50, 25, 12.5, 6.25, and 3.12 mM. The highest preliminary velocities were determined from initial linear portion of absorbance up to 10 min after the addition of enzyme at per minute’s interval. The inhibition type was determined by Lineweaver-Burk plot (1/V) versus 1/[S] mM^−1. The EI dissociation constant Ki was ascertained by secondary plot of 1/V against inhibitor concentration. […] The results were processed by using SoftMaxPro.

Data set [3] has as its target T1, Jack bean urease. The data set can be described thus: biochemical. The protocol:
The amount of NH3 produced with indophenol’s method reported in the literature was used to estimate Jack bean urease activity. In a 96-well plate, reaction mixtures containing 20 µL of Jack bean urease at 5 U/mL and 20 µL of compounds in 50 µL of potassium phosphate buffer (100 mM urea, 10 mM K2HPO4, 1 mM EDTA, and 10 mM LiCl, pH 8.2) were incubated for 30 min at 37 °C. Briefly, 50 μL each of phenol reagents (1%, w/v phenol and 0.005%, w/v sodium nitroprusside) and 50 μL of alkali reagent (0.5%, w/v NaOH and 0.1% NaOCl were added to each well. The absorbance at 625 nm was evaluated after 10 min by utilizing a microplate reader (OPTIMax, Tunable). Each of the reactions was accomplished in triplicate. The urease inhibition activities were calculated using the following formula:(1) Urease inhibition activity %=ODcontrol−ODsample×100/ODcontrol where ODcontrol and ODsample represent the optical densities in the absence and presence of sample, respectively, by using thiourea as standard.

Where two headings read alike, the source gives them in different places.

On to `O=C1O[C@H]([C@@H](O)CO)C(O)=C1O` [Vitamin C, ascorbic acid, reference compound], for which the “Free radical % Scavenging” value in data set [1] is 95.15 (0.05) %.

`CCCCCCCC(=O)NC(=S)NC12CC3CC(CC(C3)C1)C2` [Compound 3j, N-(Adamantan-1-ylcarbamothioyl)octanamide]: the melting point lay in the range of 158 to 159 °C. The compound further had an inhibition constant (Ki) at Jack bean urease [2] of 7 nM. In addition, the “Inhibition Type” value on Jack bean urease [2] (Lineweaver-Burk plot) is “Non-Competitive”. For the same compound, the Vmax at Jack bean urease [2] (inhibitor dose 0.0042 µM) was 0.001561 ΔA/Min. Further, the Vmax at Jack bean urease [2] (inhibitor dose 0.0085 µM) was 0.001224 ΔA/Min. Moreover, the Vmax on Jack bean urease [2] (inhibitor dose 0.017 µM) is 0.001208 ΔA/Min. The “Free radical % Scavenging” value in data set [1] was 9.96 (0.06) %.

In the case of `O=C(NC(=S)NC12CC3CC(CC(C3)C1)C2)c1cc([N+](=O)[O-])cc([N+](=O)[O-])c1` [Compound 3i, N-(Adamantan-1-ylcarbamothioyl)-3,5-dinitrobenzamide], the melting point fell in the range of 210 to 211 °C. Besides, the midpoint of inhibition against Jack bean urease [3], the IC50, lay at 10 nM. Moreover, the “Free radical % Scavenging” value in data set [1] is on record as 5.91 (0.05) %.

`NC(N)=S` [Thiourea, reference compound]: the IC50 on Jack bean urease [3] (Jack bean urease, 30 min at 37 °C, pH 8.2, mean (SEM), read-out: Urease Activity IC50 ± SEM) was found to be 4740 nM.

Turning to `O=C(NC(=S)NC12CC3CC(CC(C3)C1)C2)c1ccc(Cl)cc1Cl` [Compound 3b, N-(Adamantan-1-ylcarbamothioyl)-2,4-dichlorobenzamide], the melting point lay within 204 to 205 °C. Besides, the IC50 at Jack bean urease [3] turned out to be 10 nM. Also, the “Free radical % Scavenging” value in data set [1] is given as 1.46 (0.02) %.

As for `O=C(NC(=S)NC12CC3CC(CC(C3)C1)C2)c1ccc(F)cc1` [Compound 3a, N-(Adamantan-1-ylcarbamothioyl)-4-fluorobenzamide], the melting point is 180 to 182 °C. Moreover, half-maximal inhibition at Jack bean urease [3] (IC50) required 10 nM. In data set [1], the “Free radical % Scavenging” value was 4.18 (0.03) %.

`CCCC(=O)NC(=S)NC12CC3CC(CC(C3)C1)C2` [Compound 3c, N-(Adamantan-1-ylcarbamothioyl)butyramide] returned a melting point of 136 to 137 °C. On Jack bean urease [3], this compound registered an IC50 of 30 nM. For the same compound, in data set [1], the “Free radical % Scavenging” value was 2.51 (0.00) %.

`O=C(NC(=S)NC12CC3CC(CC(C3)C1)C2)c1ccccc1Cl` [Compound 3g, N-(Adamantan-1-ylcarbamothioyl)-2-chlorobenzamide] displayed a melting point of 185 to 187 °C. On Jack bean urease [3], this compound had a 50% inhibitory concentration (IC50) of 8.7 nM. The “Free radical % Scavenging” value in data set [1] is reported as 1.12 (0.03) %.

The compound `CCCCCCC(=O)NC(=S)NC12CC3CC(CC(C3)C1)C2` [Compound 3h, N-(Adamantan-1-ylcarbamothioyl)heptanamide] came in with a melting point of 149 to 151 °C. The compound further yielded a concentration for half-maximal inhibition (IC50) at Jack bean urease [3] of 10 nM. Moreover, the “Free radical % Scavenging” value in data set [1] is 15.36 (0.01) %.

`O=C(NC(=S)NC12CC3CC(CC(C3)C1)C2)c1ccc(Cl)cc1` [Compound 3e, N-(Adamantan-1-ylcarbamothioyl)-4-chlorobenzamide] registered a melting point of 182 to 183 °C. This compound also showed an IC50 against Jack bean urease [3] of 30 nM. Further, in data set [1], the “Free radical % Scavenging” value is 13.36 (0.01) %.

On to `COc1ccc(C(=O)NC(=S)NC23CC4CC(CC(C4)C2)C3)cc1` [Compound 3d, N-(Adamantan-1-ylcarbamothioyl)-4-methoxybenzamide], for which the melting point fell in the range of 178 to 179 °C. Inhibition at Jack bean urease [3] was half-maximal at 20 nM (IC50). The “Free radical % Scavenging” value in data set [1] is reported as 1.86 (0.01) %.

`CCCCC(=O)NC(=S)NC12CC3CC(CC(C3)C1)C2` [Compound 3f, N-(Adamantan-1-ylcarbamothioyl)pentanamide]: the melting point is 141 to 142 °C. In addition, at Jack bean urease [3], the IC50 amounted to 30 nM. Besides, in data set [1], the “Free radical % Scavenging” value is reported as 4.26 (0.00) %.

As a reminder, the Ki is a dissociation constant, usually derived from enzyme kinetics or from competition with a known ligand. Read a high Ki as weaker binding. As usually defined, the melting point is the temperature, or range, at which the solid turns liquid. A word on the IC50: it is the concentration that gives 50% inhibition.
